Target: Ras-related C3 botulinum toxin substrate 3 (Homo sapiens) (UniProt P60763)
Experiment: RAC3 binders by thermal stabilization, biophysical, recombinant human protein, DSF (AID 504)
Conditions: SYPRO orange, at 10 µM, protein 2 µM, buffer 10 mM HEPES, pH 7.5, NaCl 150 mM, stronger effect = higher value

| SMILES | Tm shift |
| --- | --- |
| N#C/C(=C1\Nc2ccccc2S1)c1ccnc(NCCc2cccnc2)n1 | 2.3 °C |
| N#CC(C(N)Sc1ccccc1N)C(C#N)C(N)Sc1ccccc1N (configuration not stated) | 2.4 °C |

— PubChem BioAssay AID504
